Target: T1, human recombinant histamine H2 receptor (Homo sapiens, UniProt P25021)
T1 construct: expressed in transfected cells; host or cells: Chinese hamster ovary (CHO) K1 cells
Experiment: Histamine H2 radioligand binding assay ([125I]Aminopotentidine)
Conditions: percent inhibition of specific binding of 0.1 nM [125I]Aminopotentidine; compounds screened at 1 μM or lower
Method: To evaluate in radioligand binding assays the activity of compounds of the invention, human recombinant histamine H2 receptor expressed in Chinese hamster ovary (CHO) K1 cells (Ruat, M., Proc. Natl. Acad. Sci. USA. 87(5):1658, 1990) in a 50 mM Phosphate buffer, pH 7.4 was used. Compounds of the invention were incubated with 0.1 nM [^125I]Aminopotentidine for 120 min at 25° C. Non-specific binding was estimated in the presence of 3 μM Tiotidine. Receptor proteins were filtered and washed, the filters were then counted to determine [^125I]Aminopotentidine specifically bound. Compounds were screened at 1 μM or lower, using 1% DMSO as vehicle. Biochemical assay results are presented as the percent inhibition of specific binding in Table 2.

T1 sequence (P25021 whole entry): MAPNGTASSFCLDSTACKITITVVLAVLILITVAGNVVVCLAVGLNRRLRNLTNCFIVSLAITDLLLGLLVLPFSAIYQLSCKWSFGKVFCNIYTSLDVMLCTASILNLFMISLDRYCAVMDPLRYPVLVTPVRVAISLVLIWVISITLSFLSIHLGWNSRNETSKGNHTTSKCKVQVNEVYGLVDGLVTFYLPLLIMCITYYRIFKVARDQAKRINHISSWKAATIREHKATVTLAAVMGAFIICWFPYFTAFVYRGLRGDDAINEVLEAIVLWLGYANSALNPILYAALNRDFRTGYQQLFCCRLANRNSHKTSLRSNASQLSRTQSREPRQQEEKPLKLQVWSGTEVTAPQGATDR

SMILES | Binding Data (% Inhibition) Histamine Binding H2
Cc1ccc2c(c1)c1c(n2CC(CC(=O)O)c2ccc(F)cc2)CCN(C)C1 (stereo not shown) [Compound 7, 4-(2,8-dimethyl-3,4-dihydro-1H-pyrido[4,3-b]indol-5(2H)-yl)-3-(4-fluorophenyl)butanoic acid] | 5%
Cc1ccc2c(c1)c1c(n2CC2(c3ccc(F)cc3)OCCO2)CCN(C)C1 [Compound 3, 5-((2-(4-fluorophenyl)-1,3-dioxolan-2-yl)methyl)-2,8-dimethyl-2,3,4,5-tetrahydro-1H-pyrido[4,3-b]indole] | 96%
CN1CCc2c(c3cc(Cl)ccc3n2CC2(c3ccc(F)cc3)OCCO2)C1 [Compound 4, 8-chloro-5-((2-(4-fluorophenyl)-1,3-dioxolan-2-yl)methyl)-2-methyl-2,3,4,5-tetrahydro-1H-pyrido[4,3-b]indole] | 96%
CNC(=O)CC(Cn1c2c(c3cc(C)ccc31)CN(C)CC2)c1ccc(F)cc1 (stereo not shown) [Compound 8, 4-(2,8-dimethyl-3,4-dihydro-1H-pyrido[4,3-b]indol-5(2H)-yl)-3-(4-fluorophenyl)-N-methylbutanamide] | 22%
CN1CCc2c(c3cc(Cl)ccc3n2CC2(c3ccc(Cl)cc3)OCCO2)C1 [Compound 5, 8-chloro-5-((2-(4-chlorophenyl)-1,3-dioxolan-2-yl)methyl)-2-methyl-2,3,4,5-tetrahydro-1H-pyrido[4,3-b]indole] | 98%
CCOC(=O)CC(Cn1c2c(c3cc(C)ccc31)CN(C)CC2)c1ccc(F)cc1 (stereo not shown) [Compound 6, ethyl 4-(2,8-dimethyl-3,4-dihydro-1H-pyrido[4,3-b]indol-5(2H)-yl)-3-(4-fluorophenyl)butanoate] | 86%
Cc1ccc2c(c1)c1c(n2CC2(c3ccccc3)OCCO2)CCN(C)C1 [Compound 2, 2,8-dimethyl-5-((2-phenyl-1,3-dioxolan-2-yl)methyl)-2,3,4,5-tetrahydro-1H-pyrido[4,3-b]indole] | 89%

Reference: patent publication US8927571B2, “Pyrido[4,3-B]indoles and methods of use” (Medivation Technologies, Inc., priority 2009, dated 2015)
